Columns and labels:
A549/ATCC = assay: NCI sixty human tumor cell line screen, Non-small-cell-lung panel; assay type: cell-based; details: NCI protocol
Experimental: (§1) The in vitro anticancer activity studies for these N-((1-benzyl-1H-1,2,3-triazol-4-yl)methyl) arylamide analogues were carried out at the National Cancer Institute, USA.
(§2) The N-((1-benzyl-1H-1,2,3-triazol-4-yl)methyl)arylamide analogues have been tested at NCI, USA, against sixty human tumor cell lines derived from nine cancer types (leukemia, non-small cell lung cancer, colon cancer, CNS cancer, melanoma cancer, ovarian cancer, renal cancer, prostate cancer and breast cancer). For these compounds results are expressed as growth inhibition (GI50) values as per NCI protocol.

EKVX = assay: as above; assay type: cell-based; details: NCI protocol
Experimental: as §1, §2

HOP-62 = assay: as above; assay type: cell-based; details: HOP-62, Non-small-cell-lung, NCI protocol
Experimental: as §1, §2

NCI-H226 = assay: as above; assay type: cell-based; details: NCI protocol
Experimental: as §1, §2

NCI-H460 = assay: as above; assay type: cell-based; details: NCI protocol
Experimental: as §1, §2

NCI-H522 = assay: as above; assay type: cell-based; details: NCI protocol
Experimental: as §1, §2

COLO 205 = assay: NCI sixty human tumor cell line screen, Colon panel; assay type: cell-based; details: COLO 205, Colon, NCI protocol
Experimental: as §1, §2

HCT-116 = assay: as above; assay type: cell-based; details: HCT-116, Colon, NCI protocol
Experimental: as §1, §2

HT29 = assay: as above; assay type: cell-based; details: HT-29, NCI protocol
Experimental: as §1, §2

KM12 = assay: as above; assay type: cell-based; details: NCI protocol
Experimental: as §1, §2

SW-620 = assay: as above; assay type: cell-based; details: SW-620, Colon, NCI protocol
Experimental: as §1, §2

SF-268 = assay: NCI sixty human tumor cell line screen, CNS panel; assay type: cell-based; details: SF-268, CNS, NCI protocol
Experimental: as §1, §2

SF-295 = assay: NCI sixty human tumor cell line screen, CNS panel; assay type: cell-based; details: SF-295, CNS, NCI protocol
Experimental: as §1, §2

SF-539 = assay: NCI sixty human tumor cell line screen, CNS panel; assay type: cell-based; details: SF-539, CNS, NCI protocol
Experimental: as §1, §2

SNB-19 = assay: NCI sixty human tumor cell line screen, CNS panel; assay type: cell-based; details: SNB-19, CNS, NCI protocol
Experimental: as §1, §2

SNB-75 = assay: NCI sixty human tumor cell line screen, CNS panel; assay type: cell-based; details: SNB-75, CNS, NCI protocol
Experimental: as §1, §2

U251 = assay: NCI sixty human tumor cell line screen, CNS panel; assay type: cell-based; details: U-251, NCI protocol
Experimental: as §1, §2

LOX IMVI = assay: NCI sixty human tumor cell line screen, Melanoma panel; assay type: cell-based; details: NCI protocol
Experimental: as §1, §2

M14 = assay: as above; assay type: cell-based; details: NCI protocol
Experimental: as §1, §2

MDA-MB-435 = assay: as above; assay type: cell-based; details: MDA-MB-435, Melanoma, NCI protocol
Experimental: as §1, §2

SK-MEL-28 = assay: as above; assay type: cell-based; details: SK-MEL-28, Melanoma, NCI protocol
Experimental: as §1, §2

SK-MEL-2 = assay: as above; assay type: cell-based; details: SK-MEL-2, Melanoma, NCI protocol
Experimental: as §1, §2

SK-MEL-5 = assay: as above; assay type: cell-based; details: SK-MEL-5, Melanoma, NCI protocol
Experimental: as §1, §2

UACC-62 = assay: as above; assay type: cell-based; details: UACC-62, Melanoma, NCI protocol
Experimental: as §1, §2

NCI/ADR-RES = assay: NCI sixty human tumor cell line screen, Ovarian panel; assay type: cell-based; details: NCI protocol
Experimental: as §1, §2

OVCAR-3 = assay: as above; assay type: cell-based; details: OVCAR-3, Ovarian, NCI protocol
Experimental: as §1, §2

OVCAR-4 = assay: as above; assay type: cell-based; details: OVCAR-4, Ovarian, NCI protocol
Experimental: as §1, §2

OVCAR-8 = assay: as above; assay type: cell-based; details: OVCAR-8, Ovarian, NCI protocol
Experimental: as §1, §2

SK-OV-3 = assay: as above; assay type: cell-based; details: SK-OV-3, Ovarian, NCI protocol
Experimental: as §1, §2

A498 = assay: NCI sixty human tumor cell line screen, Renal panel; assay type: cell-based; details: NCI protocol
Experimental: as §1, §2

ACHN = assay: as above; assay type: cell-based; details: NCI protocol
Experimental: as §1, §2

CAKI-1 = assay: as above; assay type: cell-based; details: CAKI-1, Renal, NCI protocol
Experimental: as §1, §2

RXF 393 = assay: as above; assay type: cell-based; details: RXF 393, Renal, NCI protocol
Experimental: as §1, §2

SN12C = assay: as above; assay type: cell-based; details: NCI protocol
Experimental: as §1, §2

TK-10 = assay: as above; assay type: cell-based; details: TK-10, Renal, NCI protocol
Experimental: as §1, §2

UO-31 = assay: as above; assay type: cell-based; details: UO-31, Renal, NCI protocol
Experimental: as §1, §2

DU-145 = assay: NCI sixty human tumor cell line screen, Prostate panel; assay type: cell-based; details: DU-145, Prostate, NCI protocol
Experimental: as §1, §2

PC-3 = assay: as above; assay type: cell-based; details: PC-3, Prostate, NCI protocol
Experimental: as §1, §2

BT-549 = assay: NCI sixty human tumor cell line screen, Breast panel; assay type: cell-based; details: BT-549, Breast, NCI protocol
Experimental: as §1, §2

MDA-MB-31/ATCC = assay: as above; assay type: cell-based; details: NCI protocol
Experimental: as §1, §2

MDA-MB-468 = assay: as above; assay type: cell-based; details: MDA-MB-468, Breast, NCI protocol
Experimental: as §1, §2

T-47D = assay: as above; assay type: cell-based; details: T47D, NCI protocol
Experimental: as §1, §2

With `COc1ccc(Nc2ncccc2C(=O)NCc2cn(Cc3cccc(Oc4ccccc4)c3)nn2)cc1` [Compound 1e, 2-(4-Methoxyphenylamino)-N-((1-(3-phenoxybenzyl)-1H-1,2,3-triazol-4-yl)methyl) nicotinamide] as the compound, how does the GI50 (A549/ATCC) read?
The GI50 was 3.44 µM.

And the GI50 (EKVX)?
Its GI50 is 4.16 µM.

What about the GI50 (HOP-62) of the same compound?
The GI50 was 5.07 µM.

What about the GI50 (NCI-H226) of the same compound?
Its GI50 is 3.92 µM.

And the GI50 (NCI-H460)?
The GI50 was 3.52 µM.

What about the GI50 (NCI-H522) of the same compound?
The GI50 was 2.13 µM.

And the GI50 (COLO 205)?
Its GI50 is 2.86 µM.

And the GI50 (HCT-116)?
Its GI50 is 4.17 µM.

And the GI50 (HT29)?
Its GI50 is 3.66 µM.

What about the GI50 (KM12) of the same compound?
The GI50 was 3.43 µM.

And the GI50 (SW-620)?
Its GI50 is 3.86 µM.

What about the GI50 (SF-268) of the same compound?
Its GI50 is 4.59 µM.

What about the GI50 (SF-295) of the same compound?
The GI50 was 2.94 µM.

What about the GI50 (SF-539) of the same compound?
Its GI50 is 2.79 µM.

What about the GI50 (SNB-19) of the same compound?
The GI50 was 3.55 µM.

And the GI50 (SNB-75)?
Its GI50 is 3.09 µM.

What about the GI50 (U251) of the same compound?
The GI50 was 3.91 µM.

And the GI50 (LOX IMVI)?
Its GI50 is 3.6 µM.

And the GI50 (M14)?
Its GI50 is 3.15 µM.

And the GI50 (MDA-MB-435)?
The GI50 was 1.71 µM.

And the GI50 (SK-MEL-28)?
Its GI50 is 3.88 µM.

And the GI50 (SK-MEL-2)?
The GI50 was 3.66 µM.

What about the GI50 (SK-MEL-5) of the same compound?
The GI50 was 2.9 µM.

And the GI50 (UACC-62)?
Its GI50 is 3.13 µM.

What about the GI50 (NCI/ADR-RES) of the same compound?
The GI50 was 3.21 µM.

And the GI50 (OVCAR-3)?
The GI50 was 3.69 µM.

What about the GI50 (OVCAR-4) of the same compound?
The GI50 was 5.42 µM.

What about the GI50 (OVCAR-8) of the same compound?
Its GI50 is 5.96 µM.

What about the GI50 (SK-OV-3) of the same compound?
The GI50 was 4.33 µM.

What about the GI50 (A498) of the same compound?
The GI50 was 4.18 µM.

What about the GI50 (ACHN) of the same compound?
The GI50 was 6.9 µM.

And the GI50 (CAKI-1)?
The GI50 was 6.3 µM.

And the GI50 (RXF 393)?
Its GI50 is 3.77 µM.

And the GI50 (SN12C)?
The GI50 was 7.41 µM.

And the GI50 (TK-10)?
Its GI50 is 5.16 µM.

And the GI50 (UO-31)?
The GI50 was 5.25 µM.

What about the GI50 (DU-145) of the same compound?
The GI50 was 1.05 µM.

And the GI50 (PC-3)?
Its GI50 is 4.74 µM.

What about the GI50 (BT-549) of the same compound?
Its GI50 is 7.16 µM.

And the GI50 (MDA-MB-31/ATCC)?
The GI50 was 5.35 µM.

And the GI50 (MDA-MB-468)?
Its GI50 is 2.42 µM.

What about the GI50 (T-47D) of the same compound?
The GI50 was 4.68 µM.

And the melting point?
The melting point was 95 to 98 °C.

Which results are given for `COc1ccc(Nc2ncccc2C(=O)NCc2cn(Cc3cccc(Oc4ccccc4)c3)nn2)c(OC)c1` [Compound 1g, 2-(2,4-Dimethoxyphenylamino)-N-((1-(3-phenoxybenzyl)-1H-1,2,3-triazol-4-yl)methyl) nicotinamide]?
GI50 (A549/ATCC): 4.15 µM; GI50 (EKVX): 5.09 µM; GI50 (HOP-62): 12.7 µM; GI50 (NCI-H226): 2.24 µM; GI50 (NCI-H460): 3.05 µM; GI50 (NCI-H522): 1.82 µM; GI50 (COLO 205): 2.14 µM; GI50 (HCT-116): 3.08 µM; GI50 (HT29): 3.26 µM; GI50 (KM12): 1.65 µM; GI50 (SW-620): 2.12 µM; GI50 (SF-268): 3.88 µM; GI50 (SF-295): 0.56 µM; GI50 (SF-539): 2.65 µM; GI50 (SNB-19): 3.33 µM; GI50 (SNB-75): 3.41 µM; GI50 (U251): 3.6 µM; GI50 (LOX IMVI): 3.01 µM; GI50 (M14): 2.13 µM; GI50 (MDA-MB-435): 0.25 µM; GI50 (SK-MEL-28): 2.6 µM; GI50 (SK-MEL-2): 7.67 µM; GI50 (SK-MEL-5): 0.72 µM; GI50 (UACC-62): 1.43 µM; GI50 (NCI/ADR-RES): 2.12 µM; GI50 (OVCAR-3): 1.54 µM; GI50 (OVCAR-4): 5.11 µM; GI50 (OVCAR-8): 4.1 µM; GI50 (SK-OV-3): 2.59 µM; GI50 (A498): 1.01 µM; GI50 (ACHN): 4.83 µM; GI50 (CAKI-1): 1.71 µM; GI50 (RXF 393): 7.83 µM; GI50 (SN12C): 1.71 µM; GI50 (TK-10): 3.14 µM; GI50 (UO-31): 8.06 µM; GI50 (DU-145): 3.37 µM; GI50 (PC-3): 0.62 µM; GI50 (BT-549): 3.51 µM; GI50 (MDA-MB-31/ATCC): 5.54 µM; GI50 (MDA-MB-468): 1.46 µM; GI50 (T-47D): 4.28 µM; melting point: 127 to 129 °C

Reference: patent US9309225B2, “N-((1-benzyl-1H-1,2,3-triazol-4-yl)methyl)arylamide compounds as potential anticancer agents and a process for the preparation thereof” (COUNCIL OF SCIENTIFIC & INDUSTRIAL RESEARCH, priority 2013, dated 2016)
